Results from ChEMBL document CHEMBL1156829 (Proc Natl Acad Sci U S A, 2008).
Numbered stars: 1 amine (or outer) side, 2 acyl side, 3 side chain; on linkers, the order of the positions; unused ones are H or OH. Square brackets hold non-standard residues; d marks the D form. Peptide text beside a SMILES is read from it. * marks the point of attachment. X1 = CCC(=O)CC(O)C[C@@H](C)C[C@H](N[*:1])C(=O)[*:2]; Hexenoyl(2E,4S-Me) = CC[C@H](C)/C=C/C(=O)*; Leu(3R-OH) = CC(C)[C@@H](O)[C@H](N)C(=O)O; NH((S)CH(Me)CH2NMe2) = C[C@@H](CN(C)C)N*; Pro(4S-Me) = C[C@@H]1CN[C@H](C(=O)O)C1; Aib = CC(C)(N)C(=O)O; βAla = NCCC(=O)O

Legend:
[1] = NOVARTIS: Cytotoxicity against human hepatocellular carcinoma cell line (Huh7); format: toxicity, cell-based, Huh-7; conditions: Huh7 cells (hepatocellular carcinoma cell line)
Plasmodium falciparum [2] = assay: NOVARTIS: Inhibition of Plasmodium falciparum W2 (drug-resistant) proliferation in erythrocyte-based infection assay; format: functional, organism-based; conditions: Plasmodium falciparum, W2; read-out: EC50
Plasmodium falciparum [3] = assay: NOVARTIS: Inhibition of Plasmodium falciparum 3D7 (drug-susceptible) proliferation in erythrocyte-based infection assay; format: functional, organism-based; conditions: Plasmodium falciparum, 3D7

SMILES	CC50 [1]	EC50 (Plasmodium falciparum [2])	EC50 (Plasmodium falciparum [3])
COc1ccc2c(c1)C(C)(CC#N)C(=O)N2C (stereo not drawn)	> 100000 nM	1060 nM	5640 nM
O=C(NCc1nnc(SCC2CCCO2)n1Cc1ccccc1)c1cccc2ccccc12 (stereo not drawn)	8280 nM	< 26.5 nM	1870 nM
c1ccc(CC[n+]2cc(-c3ccccc3)n3c2CCC3)cc1	> 100000 nM	684 nM	660 nM
CC1N=C(c2ccc(NC(=O)c3ccc(C(=O)Nc4ccc(C5=NC(C)C(C)N5)cc4)cc3)cc2)NC1C (stereo not drawn)	> 100000 nM	14.8 nM	57.6 nM
COc1ccc(NC(=O)CN2CCN(S(=O)(=O)c3cccc([N+](=O)[O-])c3)CC2)c(OC)c1	> 100000 nM	1300 nM	> 12500 nM
COc1ccc(OC)c(-c2ccc(O)c(CNCCc3cccc(F)c3)c2)c1	> 10000 nM	106 nM	675 nM
CC(Cc1ccccc1)NCCCCCCCNC(C)Cc1ccccc1 (stereo not drawn)	5900 nM	105 nM	268 nM
Brc1ccc2ncnc(NCC3CCCO3)c2c1 (stereo not drawn)	> 100000 nM	3750 nM	> 12500 nM
COc1ccccc1CNC(=O)C1c2ccccc2C(=O)N2CCc3ccccc3C12 (stereo not drawn)	> 100000 nM	2250 nM	4900 nM
CCCCCC(=O)N1c2ccccc2N=C2CC(c3ccc(OC)c(OC)c3)CC(O)=C2C1c1ccc(C(F)(F)F)cc1 (stereo not drawn)	> 100000 nM	47 nM	107 nM
Cc1cc(/C=C2\SC(=Nc3ccccc3)N(C3CCCCC3)C2=O)c(C)n1-c1ccc(Br)cc1	> 10000 nM	> 542 nM	476 nM
CCC(=O)CC(O)C[C@@H](C)C[C@H](NC(=O)[C@@H]1C[C@H](C)CN1C(=O)/C=C/[C@@H](C)CC)C(=O)N[C@H](C(=O)NC(C)(C)C(=O)N[C@@H](CC(C)C)C(=O)N[C@@H](CC(C)C)C(=O)NC(C)(C)C(=O)NC(C)(C)C(=O)NCCC(=O)N[C@@H](C)CN(C)C)[C@H](O)C(C)C (stereo partly drawn) ({Hexenoyl(2E,4S-Me)}-[Pro(4S-Me)][X1][Leu(3R-OH)][Aib]LL[Aib][Aib][βAla]-{NH((S)CH(Me)CH2NMe2)})	6470 nM	651 nM	194 nM
Cc1ccc2[nH]c3c(NCCN(C)C)ncnc3c2c1	29600 nM	254 nM	168 nM
Cc1c[n+](Cc2ccccc2)ccc1/C=C/c1ccccc1	> 10000 nM	543 nM	502 nM
COc1cc(NC(C)CCCN(Cc2ccc(Cl)cc2)C(=O)Nc2cccc(C(F)(F)F)c2)c2ncccc2c1 (stereo not drawn)	> 4440 nM	332 nM	798 nM
COc1cc(OC)cc(-n2c(=O)c3sccc3n(CC(=O)c3ccc(F)cc3)c2=O)c1	> 10000 nM	> 1170 nM	> 1250 nM
CC1(C)Cc2c(oc3ncn(CCn4cnc5oc6c(c5c4=N)CC(C)(C)SC6)c(=N)c23)CS1	> 100000 nM	9740 nM	> 12500 nM
Cc1ccc(S(=O)(=O)Oc2ccc(C=NN=C(N)N)cc2)cc1	14100 nM	631 nM	155 nM
CN(C)c1cc(NC(=O)Nc2ccccc2)c2ccccc2n1	6780 nM	332 nM	148 nM
Cc1nc2ncccn2c1-c1csc(Nc2ccccn2)n1	> 100000 nM	314 nM	189 nM
O=C(NCCCCNc1ccnc2cc(Cl)ccc12)C1CCCCC1	> 13300 nM	198 nM	311 nM
O=C(Nc1ccc(NC(=O)c2ccco2)cc1Cl)c1ccccc1	> 10000 nM	> 348 nM	> 1650 nM

SMILES	CC50 [1]	EC50 (Plasmodium falciparum [2])	EC50 (Plasmodium falciparum [3])
CC1CC2(C)Oc3ccccc3CC2C(C)C1CNCCCN(C)C (stereo not drawn)	4790 nM	192 nM	241 nM
O=C(C1CCCCN1)N1CC(c2ccccc2)c2ccccc2C1CN1CCCCC1 (stereo not drawn)	4680 nM	257 nM	439 nM
O=S(=O)(c1ccc(Br)s1)N1CCN(c2ccccc2)CC1	> 10000 nM	400 nM	411 nM
CC(C)CNC(=O)c1cnc(NCCCn2ccnc2)nc1NC1CCCC1	> 10000 nM	> 298 nM	678 nM
O=C(NCCCCCCCCCCNC(=O)Nc1ccc(C2=NCCCN2)cc1)Nc1ccc(C2=NCCCN2)cc1	> 10000 nM	69.3 nM	54.2 nM
CCCc1c2ccc(C)n2cc[n+]1CC(=O)c1ccc(OC)cc1	> 100000 nM	1230 nM	806 nM
N#Cc1c(NC(=O)COc2ccc(F)cc2F)sc2c1CCC2	> 10000 nM	> 1070 nM	> 1250 nM
NC(=O)c1ccc2c(c1)N=C(/C=C/c1ccccc1)N(C1CC1)C2	23000 nM	5600 nM	74.7 nM
CC(C)[C@@H](CO)Nc1ccnc2c(-c3ccccc3F)cnn12	> 10000 nM	> 272 nM	> 1250 nM
Cc1ccc(C(OCC(C)(C)C[N+](C)(C)C)c2ccccc2)cc1 (stereo not drawn)	23300 nM	629 nM	265 nM
O=C(COc1ccccc1Cl)OCc1cc(=O)n2nc(C3CC3)sc2n1	> 10000 nM	> 1250 nM	> 803 nM
COc1cc2c(N3CCOCC3)cc(O)c(CC(=O)Nc3ccccc3)c2cc1OC	> 100000 nM	712 nM	626 nM
Cc1nc2sccn2c1-c1csc(Nc2ccccn2)n1	> 100000 nM	889 nM	381 nM
CCN(CC)CCCC(C)Nc1nc(/C=C/c2ccccc2OC)nc2cc(Cl)ccc12 (stereo not drawn)	> 10000 nM	688 nM	878 nM
C=C1[C@@H](C)[C@H]2[C@H](Cc3ccccc3)NC(=O)[C@]23C(OC(C)=O)C=C[C@@](C)(O)C(=O)[C@@H](C)CC=C[C@H]3[C@@H]1O (stereo partly drawn)	> 10000 nM	711 nM	1170 nM
CN1c2ccccc2N(C)C1c1ccco1	> 10000 nM	356 nM	288 nM
Cc1cc(I)ccc1N1C(=O)C2C3c4ccccc4C(CO)(c4ccccc43)C2C1=O (stereo not drawn)	> 67900 nM	> 10100 nM	> 11200 nM
Cc1ccc(NC(=O)N2CCN(C(=O)c3nc(-c4ccccc4)nc(C)c3C(=O)OC(C)C)CC2C)cc1 (stereo not drawn)	> 10000 nM	171 nM	441 nM
CCCC1=NN(c2nc3ccccc3s2)C(=O)C1	> 10000 nM	> 644 nM	> 1250 nM
CCN(CC)CCCC(C)Nc1c2ccc(Cl)cc2nc2ccc(OC)nc12 (stereo not drawn)	> 6250 nM	746 nM	744 nM
CCN1/C(=C/c2sc3ccc(Br)cc3[n+]2CC)C=Cc2ccccc21	> 10000 nM	1080 nM	645 nM
O=C(Cc1ccccc1)N1CCOc2c(cc(-c3csc4ccccc34)cc2OCCc2ccccn2)C1	> 100000 nM	165 nM	257 nM

SMILES	CC50 [1]	EC50 (Plasmodium falciparum [2])	EC50 (Plasmodium falciparum [3])
Cc1cc(N(C)C)cc(C)[n+]1OC(=O)N(c1ccccc1)c1ccccc1	> 10000 nM	2000 nM	> 1490 nM
COC(=O)CNC(=O)c1sc2ncn(CC(=O)Nc3ccccc3OC)c(=O)c2c1C	> 10000 nM	> 739 nM	> 948 nM
CCCCCCC1CCC(O)(C(C)(O)C(=O)NC2C(=O)N3NCCCC3C(=O)N(O)C(COC)C(=O)NCC(=O)N3NCCCC3C(=O)N(O)C(C)C(=O)OC2C)OC1C (stereo not drawn)	197 nM	124 nM	219 nM
COc1ccc(CN2C[C@H](Sc3nc4ccccc4[nH]3)C[C@H]2C(=O)NC2CC2)cc1C	16500 nM	830 nM	545 nM
O=C(NN=Cc1c(O)ccc2ccccc12)c1cccnc1	> 100000 nM	373 nM	875 nM
Cc1ccc(NC(=O)CN2CCN(c3ccccn3)CC2)cc1F	> 10000 nM	> 1540 nM	2080 nM
C=C[C@H]1CN2CC[C@H]1C[C@H]2[C@H](OC(=O)CCCC)c1ccnc2ccccc12	> 10000 nM	452 nM	942 nM
CCCCCCN(C(=O)CCc1ccccc1)C(CC)c1nc2ccccc2c(=O)n1-c1ccc(Cl)cc1 (stereo not drawn)	> 10000 nM	26.7 nM	1160 nM
O=C(NC1CCCCC1)c1noc2c1CCCCC2	> 100000 nM	5670 nM	> 12500 nM
CC(C)NC(=O)c1ccc2c(c1)N=C(/C=C/c1ccccc1)N(CC1CCCCC1)C2	> 10200 nM	696 nM	> 1250 nM
OCCSc1nc(-c2ccccc2)nc2ccc(F)cc12	> 10000 nM	> 183 nM	> 1250 nM
CN1[C@@H](C(=O)Nc2ccc3c(c2)OCO3)C[C@@H](c2ccc(F)cc2)NS1(=O)=O	> 10000 nM	> 1570 nM	1960 nM
c1ccc(OCCOc2ccc(Nc3c4ccccc4nc4ccccc34)cc2)cc1	6120 nM	347 nM	505 nM
Cc1cccc(Nc2c3c(c(C#N)c4nc5ccccc5n24)CCC3)c1	> 100000 nM	51.8 nM	92.6 nM
O=C(Nc1c(C(=O)Nc2cccc(Cl)c2)oc2ccccc12)c1cc(-c2ccccc2O)n[nH]1	35100 nM	74.2 nM	272 nM
Cc1ccc2c(c1)NC(c1ccc(F)cc1)C1=C(CC(c3ccccc3)CC1=O)N2 (stereo not drawn)	> 100000 nM	635 nM	833 nM
CC(=O)c1c(C)n(CC(=O)Nc2cccc(C)c2)c2ccccc12	> 100000 nM	248 nM	329 nM
COc1cc(C=C(C#N)c2nc3ccccc3[nH]2)ccc1OCc1ccccc1	> 100000 nM	1590 nM	766 nM
O=C(Nc1cccc(N2CCC(NCC3CCCCC3)CC2)c1)C1CC1	> 100000 nM	1180 nM	3680 nM
C[n+]1ccccc1/C=C/c1ccc(Br)cc1	> 10000 nM	324 nM	360 nM
COc1ccccc1NC(=O)CCCC(=O)OC(C)C(=O)c1ccccc1 (stereo not drawn)	> 10000 nM	> 659 nM	> 1250 nM
COc1ccc(-n2c(COc3cccc4ccccc34)nnc2SC)cc1	> 100000 nM	236 nM	524 nM
